From PubChem BioAssay (NCI)
Values joined by “and” are separate entries in the source; they are usually repeats but may differ in a detail not shown here. Equal entries are not always repeated.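 Interpolation was linear, between the two tested concentrations surrounding the appropriate level; five concentrations were tested over 48 hours in 96-well plates. Here, GI50 denotes the concentration required for 50% inhibition of growth. TGI: total growth inhibition.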

Tests used:
Assay in all cases: NCI-60 cell line screen, 48 h
KM20L2 colon = test system: KM20L2 colon
SNB-78 CNS = test system: SNB-78 CNS
HOP-18 NSCLC = test system: HOP-18 NSCLC
LXFL 529 NSCLC = test system: LXFL 529 NSCLC
DMS 114 small cell lung = test system: DMS 114 small cell lung
MDA-N = test system: MDA-N
DLD-1 colon = test system: DLD-1 colon
XF 498 CNS = test system: XF 498 CNS
RXF-631 renal = test system: RXF-631 renal
SN12K1 renal = test system: SN12K1 renal

SMILES	TGI (KM20L2 colon)	TGI (SNB-78 CNS)	TGI (HOP-18 NSCLC)	TGI (LXFL 529 NSCLC)	TGI (DMS 114 small cell lung)	TGI (MDA-N)	GI50 (MDA-N)	TGI (DLD-1 colon)	TGI (XF 498 CNS)	TGI (RXF-631 renal)	GI50 (SNB-78 CNS)	GI50 (DLD-1 colon)	TGI (SN12K1 renal)	GI50 (XF 498 CNS)
Cn1cc(-c2ccc3c4ccccc4n(C)c3c2)c2ccccc21	> 100 µM	> 100 µM	> 100 µM	> 100 µM	> 100 µM	–	–	–	–	–	–	–	–	–
N[C@H]1CCC[C@@H](O)C1O (stereo not given in full)	–	–	–	–	–	> 100 µM	–	–	–	–	–	–	–	–
O=C(c1ccc(Cl)cc1Cl)N1CCN(C(=O)c2ccc(Cl)cc2Cl)C1=S	–	–	–	–	–	43.8 µM	20 µM	–	–	–	–	–	–	–
O=C(n1c2ccccc2c2n[nH]c(=S)nc21)C(F)(F)F	–	> 100 µM	–	> 100 µM	> 100 µM	–	–	> 100 µM	> 100 µM	–	–	–	–	–
Cc1cccc(NC(=O)c2c(N)[n+]([O-])c3ccccc3[n+]2[O-])c1	30.5 µM	35.4 µM	32.2 µM	22.9 µM	–	–	–	26 µM	24.5 µM	3.24 µM	–	–	–	–
O=CNC(Cc1cnc[nH]1)C(=O)O (stereo not given)	–	–	–	–	–	> 100 µM	–	–	–	–	–	–	–	–
Cc1cc(NS(=O)(=O)c2ccc(NC(=O)c3ccc(Cl)c4c(Nc5ccc(S(=O)(=O)Nc6cc(C)on6)cc5)c5ccccc5nc34)cc2)no1	40 µM	84.1 µM	30.4 µM	48.5 µM	42.5 µM	–	–	–	75.9 µM	–	–	–	–	–
COc1ccc(-c2cc(=O)c3c(O)c(O)c(OC)cc3o2)cc1O	> 100 µM	–	> 100 µM	> 100 µM	–	–	–	> 100 µM	> 100 µM	> 100 µM	–	–	–	–
COc1ccc2c(=O)c(-c3cc(OC)c(OC)cc3OC)coc2c1	–	> 100 µM	–	> 100 µM	> 24.6 µM	> 100 µM	–	> 100 µM	8.07 µM	> 100 µM	–	–	–	–
CCOC(=O)c1ccc(N=Cc2ccc(N(CCC#N)S(=O)(=O)c3ccccc3)cc2C)cc1	> 100 µM	> 100 µM	–	> 100 µM	> 100 µM	–	–	> 100 µM	> 100 µM	> 100 µM	–	–	–	–
C=CCCC(O)c1cc(C)c(O)c(C)c1 (stereo not given)	> 100 µM	> 100 µM	> 100 µM	> 100 µM	> 100 µM	–	–	–	–	–	–	–	–	–
COC(=O)NC1(NC(=O)OC)NC(=O)c2ccccc2N1	–	–	–	–	–	> 100 µM	–	–	–	–	–	–	–	–
CCCCC[C@@H]1CCCC2NC(CCCCCO[Si](c3ccccc3)(c3ccccc3)C(C)(C)C)CCC21 (stereo not given in full)	23.8 µM	30.2 µM	–	–	28.1 µM	–	–	28.1 µM	–	27.7 µM	–	–	–	–
O=C(NCCCN1CCN(CCCNC(=O)c2cccc3ccccc23)CC1)c1cccc2ccccc12	73.5 µM	> 100 µM	> 100 µM	> 100 µM	> 100 µM	–	–	–	93.9 µM	> 100 µM	–	–	–	–
CCN(Cc1cc(Cl)cc(C)c1O)Cc1c(O)ccc2ccccc12	–	–	–	–	–	35.8 µM	–	–	–	–	–	–	–	–
CC(C)(C)c1cc(C2c3cc4c(cc3OC(O)(CO)C2C(=O)O)OCO4)cc(C(C)(C)C)c1O (stereo not given) (tested in a mixture with another compound)	33.4 µM	–	20.3 µM	–	23.8 µM	–	–	33.2 µM	–	43.3 µM	–	–	–	–
CC(=O)/C=C1\CC(=O)N(C)c2ccccc2N1	–	> 100 µM	–	> 100 µM	64.3 µM	–	–	22.9 µM	> 100 µM	–	–	–	–	–
Cn1c(=O)nc2n(-c3ccc(Br)cc3)c3ccccc3nc-2c1=O	8.74 µM	35.1 µM	18.8 µM	25.4 µM	4.39 µM	–	–	36.3 µM	25 µM	29.8 µM	–	–	–	–
O=c1[nH]c2nc3ccccc3c(=O)n2nc1Cc1ccccc1	> 100 µM	> 100 µM	–	> 100 µM	> 100 µM	–	–	> 100 µM	–	–	–	–	–	–
O=C1c2ccccc2C(=O)c2c1ccc1conc21	28.8 µM	10.3 µM	26.2 µM	3.83 µM	3.42 µM	1.41 µM	–	7.15 µM	–	> 26.5 µM	–	–	–	–
O=C(c1ccccc1)c1nc2c(Cl)ccc(Cl)c2cc1C(Br)Br	2.51 µM	5.94 µM	3.17 µM	1.55 µM	6.19 µM	–	–	2.24 µM	2.29 µM	3.86 µM	–	–	–	–
O=C1OC(c2ccc([N+](=O)[O-])cc2)=N/C1=C\c1ccc(Cl)cc1	–	–	–	–	–	> 100 µM	–	–	–	–	–	–	–	–
O=C(O)/C=C/c1c2ccc(=O)c(O)c-2oc2c(O)c(O)ccc12	–	–	–	–	–	34.5 µM	–	–	–	–	–	–	–	–
COc1ccc2[nH]c3c(C)c4c(c(C)c3c2c1)CN(C)C=C4	21.1 µM	4.91 µM	47.7 µM	3.61 µM	3.05 µM	34.6 µM	–	32.2 µM	5.78 µM	–	–	–	–	–
NC(CSC(c1ccccc1)(c1ccccc1)c1ccccc1)C(=O)O (stereo not given)	5.47 µM	95.9 µM	116 µM	–	–	12.5 µM	–	125 µM	7.77 µM	–	10.8 µM	0.831 µM	2.21 µM	0.711 µM and 0.959 µM
